Test results from patent US6528456B2, “Herbicidal 2-pyrazolyl-6-aryloxypyri(mi)dines” (BASF Aktiengesellschaft, priority 1999, dated 2003).

Assays:
Type in all cases: in vivo
Abutilon theophrasti = assay: Post-emergence test; settings: 2-4 weeks after treatment
Protocol: (§1) To evaluate their herbicidal activity, compounds according to the invention are tested using a representative range of plants: ABUTH Abutilon theophrasti [table] […] These acetone solutions are diluted with water and the resulting formulations applied at dosage levels equivalent of about 0.1 to 0. 4 kg per hectare of test compound per pot. After spraying the plants are placed on greenhouse benches and are cared for in the usual manner, commensurate with conventional greenhouse practices. From 2 to 4 weeks after treatment, the seedling plants are examined and rated according to the rating system provided above.

Alopecurus myosuroides = assay: Post-emergence test; settings: 2-4 weeks after treatment
Protocol: as §1, with “ALOMY Alopecurus myosuroides” for “ABUTH Abutilon theophrasti”

Glycine max = assay: Pre-emergence test; settings: 3 weeks after treatment
Protocol: To evaluate their herbicidal activity, compounds according to the invention are tested using a representative range of plants:
The pre-emergence tests involve spraying a liquid formulation of the compound onto the soil in which the seeds of the plant species mentioned above has recently been sown.
The soil used in the tests is a prepared horticultural loam. The formulations used in the tests are prepared from solutions of the test compounds in acetone containing 0.4% by weight of an alkylphenol/ethylene oxide condensate available under the trade mark TRITON X-155. These acetone solutions are diluted with water and the resulting formulations applied at dosage levels corresponding to 0.025 kg, 0.100 kg or 0.400 kg of active material per hectare in a volume equivalent to 900 litres per hectare. In these tests untreated sown soil are used as controls. From 2 to 4 weeks after treatment, the tests are terminated and each pot is examined and rated according to the rating system set forth below: […]

Echinochloa crus-galli = assay: Pre-emergence test; settings: 3 weeks after treatment
Protocol: (§2) To evaluate their herbicidal activity, compounds according to the invention are tested using a representative range of plants: ECHCG Echinochloa crus-galli The pre-emergence tests involve spraying a liquid formulation of the compound onto the soil in which the seeds of the plant species mentioned above has recently been sown. The soil used in the tests is a prepared horticultural loam. The formulations used in the tests are prepared from solutions of the test compounds in acetone containing 0.4% by weight of an alkylphenol/ethylene oxide condensate available under the trade mark TRITON X-155. These acetone solutions are diluted with water and the resulting formulations applied at dosage levels corresponding to 0.025 kg, 0.100 kg or 0.400 kg of active material per hectare in a volume equivalent to 900 litres per hectare. In these tests untreated sown soil are used as controls. From 2 to 4 weeks after treatment, the tests are terminated and each pot is examined and rated according to the rating system set forth below: [table]

Matricaria inodora = assay: Pre-emergence test; settings: 3 weeks after treatment
Protocol: as §2, with “MATIN Matricaria inodora” for “ECHCG Echinochloa crus-galli”

Setaria viridis = assay: Post-emergence test; settings: 2-4 weeks after treatment
Protocol: as §1, with “SETVI Setaria viridis” for “ABUTH Abutilon theophrasti”

Galium aparine = assay: Pre-emergence test; settings: 3 weeks after treatment
Protocol: as §2, with “GALAP Galium aparine” for “ECHCG Echinochloa crus-galli”

Ipomoea hederacea = assay: Post-emergence test; settings: 2-4 weeks after treatment
Protocol: as §1, with “IPHOE Ipomoea hederacea” for “ABUTH Abutilon theophrasti”

| Structure (SMILES) | ABUTH herbicidal rating (Abutilon theophrasti; 0.1 kg/ha) | ABUTH herbicidal rating (Abutilon theophrasti; 0.4 kg/ha) | ALOMY herbicidal rating (Alopecurus myosuroides; 0.1 kg/ha) | ALOMY herbicidal rating (Alopecurus myosuroides; 0.4 kg/ha) | GLXMA herbicidal rating (Glycine max; 0.025 kg/ha) | GLXMA herbicidal rating (Glycine max; 0.100 kg/ha) | GLXMA herbicidal rating (Glycine max; 0.400 kg/ha) | ECHCG herbicidal rating (Echinochloa crus-galli; 0.025 kg/ha) | ECHCG herbicidal rating (Echinochloa crus-galli; 0.100 kg/ha) | ECHCG herbicidal rating (Echinochloa crus-galli; 0.400 kg/ha) | MATIN herbicidal rating (Matricaria inodora; 0.025 kg/ha) | MATIN herbicidal rating (Matricaria inodora; 0.100 kg/ha) | MATIN herbicidal rating (Matricaria inodora; 0.400 kg/ha) | SETVI herbicidal rating (Setaria viridis; 0.1 kg/ha) | SETVI herbicidal rating (Setaria viridis; 0.4 kg/ha) | GALAP herbicidal rating (Galium aparine; 0.025 kg/ha) | GALAP herbicidal rating (Galium aparine; 0.100 kg/ha) | GALAP herbicidal rating (Galium aparine; 0.400 kg/ha) | IPOHE herbicidal rating (Ipomoea hederacea; 0.1 kg/ha) | IPOHE herbicidal rating (Ipomoea hederacea; 0.4 kg/ha) |
| --- | --- | --- | --- | --- | --- | --- | --- | --- | --- | --- | --- | --- | --- | --- | --- | --- | --- | --- | --- | --- |
| Cn1nc(C(F)(F)F)cc1Oc1cc(C#N)cc(-c2cc(C(F)(F)F)nn2C)n1 [Example 3, 4-Cyano-2-(1-methyl-3-trifluoromethylpyrazol-5-yloxy)-6-(1-methyl-3-trifluoromethylpyrazol-5-yl)pyridine] | 4 (4 - Injury) | 5 (5 - Definite injury) | 3 (3 - Moderate effect) | 4 (4 - Injury) | 0 (0 - No effect) | 1 (1 - Trace effect) | 3 (3 - Moderate effect) | 2 (2 - Slight effect) | 4 (4 - Injury) | 4 (4 - Injury) | 9 (9 - Complete kill) | 9 (9 - Complete kill) | 9 (9 - Complete kill) | 5 (5 - Definite injury) | 7 (7 - Good herbicidal effect) | 1 (1 - Trace effect) | 4 (4 - Injury) | 8 (8 - Approaching complete kill) | 6 (6 - Herbicidal effect) | 8 (8 - Approaching complete kill) |
| Cc1cnc(-c2cc(C(F)(F)F)nn2C)nc1Oc1cc(C(F)(F)F)nn1C [Example 4, 2-(1-Methyl-3-trifluoromethylpyrazol-5-yl)-6-(1-methyl-3-trifluoromethylpyrazol-5-yloxy)-5-methylpyrimidine] | 6 (6 - Herbicidal effect) | 7 (7 - Good herbicidal effect) | 5 (5 - Definite injury) | 7 (7 - Good herbicidal effect) | 2 (2 - Slight effect) | 3 (3 - Moderate effect) | 4 (4 - Injury) | 4 (4 - Injury) | 7 (7 - Good herbicidal effect) | 8 (8 - Approaching complete kill) | 8 (8 - Approaching complete kill) | 8 (8 - Approaching complete kill) | 9 (9 - Complete kill) | 9 (9 - Complete kill) | 9 (9 - Complete kill) | 1 (1 - Trace effect) |  | 8 (8 - Approaching complete kill) | 9 (9 - Complete kill) | 9 (9 - Complete kill) |
| Cc1cc(Oc2cccc(C(F)(F)F)c2)nc(-c2cc(C(F)(F)F)nn2C)c1 [Example 63] | 4 (4 - Injury) | 4 (4 - Injury) | 1 (1 - Trace effect) | 2 (2 - Slight effect) | 0 (0 - No effect) | 0 (0 - No effect) | 0 (0 - No effect) | 0 (0 - No effect) | 0 (0 - No effect) | 4 (4 - Injury) |  | 6 (6 - Herbicidal effect) | 9 (9 - Complete kill) | 3 (3 - Moderate effect) | 6 (6 - Herbicidal effect) | 0 (0 - No effect) | 0 (0 - No effect) | 1 (1 - Trace effect) | 8 (8 - Approaching complete kill) | 8 (8 - Approaching complete kill) |
